# Source: PubChem BioAssay (NCI)
#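 Method: 48-hour compound exposure of cells in 96-well plates, five concentrations, linear interpolation of endpoints. Definition used: TGI = concentration required for complete inhibition of growth.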
# Legend:
# Assay in all cases: DTP human tumour cell line panel, 48 h
# NCI/ADR-RES ovarian = tested on: NCI/ADR-RES ovarian
# TK-10 renal = tested on: TK-10 renal
# SNB-75 CNS = tested on: SNB-75 CNS
# HOP-62 NSCLC = tested on: HOP-62 NSCLC
# DU-145 prostate = tested on: DU-145 prostate
# MOLT-4 leukemia = tested on: MOLT-4 leukemia
# HCT-15 colon = tested on: HCT-15 colon
# SW-620 colon = tested on: SW-620 colon
# NCI-H226 lung = tested on: NCI-H226 lung
# M14 melanoma = tested on: M14 melanoma
# OVCAR-5 ovarian = tested on: OVCAR-5 ovarian
# SF-268 CNS = tested on: SF-268 CNS
# OVCAR-8 ovarian = tested on: OVCAR-8 ovarian
# SK-MEL-5 melanoma = tested on: SK-MEL-5 melanoma
# SNB-19 CNS = tested on: SNB-19 CNS
# SN12C renal = tested on: SN12C renal
# NCI-H23 lung = tested on: NCI-H23 lung
# SK-OV-3 ovarian = tested on: SK-OV-3 ovarian
# MCF7 breast = tested on: MCF7 breast
# CCRF-CEM leukemia = tested on: CCRF-CEM leukemia
# SF-539 CNS = tested on: SF-539 CNS
# UO-31 renal = tested on: UO-31 renal
# UACC-62 melanoma = tested on: UACC-62 melanoma
# HL-60(TB) leukemia = tested on: HL-60(TB) leukemia
# 786-0 renal = tested on: 786-0 renal
# OVCAR-3 ovarian = tested on: OVCAR-3 ovarian
# K-562 leukemia = tested on: K-562 leukemia
# HT29 colon = tested on: HT29 colon
# SR leukemia = tested on: SR leukemia
# RXF 393 renal = tested on: RXF 393 renal
# OVCAR-4 ovarian = tested on: OVCAR-4 ovarian
# KM12 colon = tested on: KM12 colon
# A498 renal = tested on: A498 renal
# HCC-2998 colon = tested on: HCC-2998 colon
# MDA-MB-435 = tested on: MDA-MB-435
# T-47D breast = tested on: T-47D breast
# HCT-116 colon = tested on: HCT-116 colon
# SF-295 CNS = tested on: SF-295 CNS
# EKVX NSCLC = tested on: EKVX NSCLC
# IGROV1 ovarian = tested on: IGROV1 ovarian
# SK-MEL-28 melanoma = tested on: SK-MEL-28 melanoma
# U251 CNS = tested on: U251 CNS
# UACC-257 melanoma = tested on: UACC-257 melanoma
# ACHN renal = tested on: ACHN renal
# MDA-MB-231 breast = tested on: MDA-MB-231 breast
# MDA-N = tested on: MDA-N
# A549 NSCLC = tested on: A549 NSCLC
# BT-549 breast = tested on: BT-549 breast
# RPMI-8226 leukemia = tested on: RPMI-8226 leukemia
# MALME-3M melanoma = tested on: MALME-3M melanoma
# NCI-H522 lung = tested on: NCI-H522 lung
# LOX IMVI melanoma = tested on: LOX IMVI melanoma
# NCI-H460 lung = tested on: NCI-H460 lung
# SK-MEL-2 melanoma = tested on: SK-MEL-2 melanoma
# COLO 205 colon = tested on: COLO 205 colon
# HS 578T breast = tested on: HS 578T breast
# PC-3 prostate = tested on: PC-3 prostate
# CAKI-1 renal = tested on: CAKI-1 renal
# HOP-92 NSCLC = tested on: HOP-92 NSCLC
smiles,measurement,setting,value
O=C(O)c1ccccc1/C=C1\Cc2cc3c(cc2C1=O)CCC3,TGI,NCI/ADR-RES ovarian,66.2 µM
same,TGI,TK-10 renal,65.8 µM
same,TGI,SNB-75 CNS,25 µM
same,TGI,HOP-62 NSCLC,65.2 µM
same,TGI,DU-145 prostate,> 100 µM
same,TGI,MOLT-4 leukemia,46.5 µM
same,TGI,HCT-15 colon,74.8 µM
same,TGI,SW-620 colon,60.4 µM
same,TGI,NCI-H226 lung,80.8 µM
same,TGI,M14 melanoma,53.7 µM
same,TGI,OVCAR-5 ovarian,> 100 µM
same,TGI,SF-268 CNS,> 100 µM
same,TGI,OVCAR-8 ovarian,> 100 µM
same,TGI,SK-MEL-5 melanoma,38.1 µM
same,TGI,SNB-19 CNS,> 100 µM
same,TGI,SN12C renal,56.8 µM
same,TGI,NCI-H23 lung,58.8 µM
same,TGI,SK-OV-3 ovarian,> 100 µM
same,TGI,MCF7 breast,68.5 µM
same,TGI,CCRF-CEM leukemia,44.2 µM
same,TGI,SF-539 CNS,80.4 µM
same,TGI,UO-31 renal,> 100 µM
same,TGI,UACC-62 melanoma,57.8 µM
same,TGI,HL-60(TB) leukemia,27.1 µM
same,TGI,786-0 renal,70.5 µM
same,TGI,OVCAR-3 ovarian,> 100 µM
same,TGI,K-562 leukemia,51.7 µM
same,TGI,HT29 colon,49.1 µM
same,TGI,SR leukemia,28.1 µM
same,TGI,RXF 393 renal,56.5 µM
same,TGI,OVCAR-4 ovarian,85.7 µM
same,TGI,KM12 colon,> 100 µM
same,TGI,A498 renal,80.1 µM
same,TGI,HCC-2998 colon,68.3 µM
same,TGI,MDA-MB-435,51.5 µM
same,TGI,T-47D breast,45.6 µM
same,TGI,HCT-116 colon,76.6 µM
same,TGI,SF-295 CNS,74.7 µM
same,TGI,EKVX NSCLC,> 100 µM
same,TGI,IGROV1 ovarian,> 100 µM
same,TGI,SK-MEL-28 melanoma,> 100 µM
same,TGI,U251 CNS,94.3 µM
same,TGI,UACC-257 melanoma,79.2 µM
same,TGI,ACHN renal,> 100 µM
same,TGI,MDA-MB-231 breast,51.2 µM
same,TGI,MDA-N,38.9 µM
same,TGI,A549 NSCLC,> 100 µM
same,TGI,BT-549 breast,> 100 µM
same,TGI,RPMI-8226 leukemia,55.2 µM
same,TGI,MALME-3M melanoma,> 100 µM
same,TGI,NCI-H522 lung,45.6 µM
same,TGI,LOX IMVI melanoma,31.4 µM
same,TGI,NCI-H460 lung,81.9 µM
same,TGI,SK-MEL-2 melanoma,55.4 µM
same,TGI,COLO 205 colon,44.8 µM
O=C1c2ccccc2N1C(=O)c1ccccc1[N+](=O)[O-],TGI,HS 578T breast,> 100 µM
same,TGI,TK-10 renal,> 100 µM
same,TGI,PC-3 prostate,> 100 µM
same,TGI,SNB-75 CNS,> 100 µM
same,TGI,HOP-62 NSCLC,> 100 µM
same,TGI,DU-145 prostate,> 100 µM
same,TGI,MOLT-4 leukemia,> 100 µM
same,TGI,HCT-15 colon,> 100 µM
same,TGI,SW-620 colon,> 100 µM
same,TGI,NCI-H226 lung,> 100 µM
same,TGI,CAKI-1 renal,> 100 µM
same,TGI,M14 melanoma,> 100 µM
same,TGI,OVCAR-5 ovarian,> 100 µM
same,TGI,SF-268 CNS,> 100 µM
same,TGI,OVCAR-8 ovarian,> 100 µM
same,TGI,SK-MEL-5 melanoma,> 100 µM
same,TGI,SNB-19 CNS,> 100 µM
same,TGI,NCI-H23 lung,> 100 µM
same,TGI,SK-OV-3 ovarian,> 100 µM
same,TGI,MCF7 breast,> 100 µM
same,TGI,CCRF-CEM leukemia,> 100 µM
same,TGI,HOP-92 NSCLC,> 100 µM
same,TGI,SF-539 CNS,> 100 µM
same,TGI,UO-31 renal,> 100 µM
same,TGI,UACC-62 melanoma,> 100 µM
same,TGI,786-0 renal,> 100 µM
same,TGI,OVCAR-3 ovarian,88.4 µM
same,TGI,K-562 leukemia,> 100 µM
same,TGI,HT29 colon,> 100 µM
same,TGI,SR leukemia,> 100 µM
same,TGI,OVCAR-4 ovarian,> 100 µM
same,TGI,KM12 colon,> 100 µM
same,TGI,A498 renal,> 100 µM
same,TGI,HCC-2998 colon,> 100 µM
same,TGI,MDA-MB-435,> 100 µM
same,TGI,T-47D breast,> 100 µM
same,TGI,HCT-116 colon,> 100 µM
same,TGI,EKVX NSCLC,> 100 µM
same,TGI,IGROV1 ovarian,> 100 µM
same,TGI,SK-MEL-28 melanoma,> 100 µM
same,TGI,U251 CNS,> 100 µM
same,TGI,UACC-257 melanoma,> 100 µM
same,TGI,ACHN renal,> 100 µM
same,TGI,MDA-N,> 100 µM
same,TGI,A549 NSCLC,> 100 µM
same,TGI,RPMI-8226 leukemia,> 100 µM
same,TGI,MALME-3M melanoma,> 100 µM
same,TGI,NCI-H522 lung,> 100 µM
same,TGI,LOX IMVI melanoma,81.6 µM
same,TGI,NCI-H460 lung,> 100 µM
same,TGI,SK-MEL-2 melanoma,> 100 µM
same,TGI,COLO 205 colon,> 100 µM
